Assay results reported in PMC12663734, “Sulfonamine-containing aurone derivatives act as inhibitors of intercellular movement of potato virus Y” (iScience, 2025).
≈ marks a conversion by molar mass, not a printed value.

Legend:
PVY [1] = test: Anti-PVY curative activity, half-leaf method; settings: Potato virus Y, in Chenopodium amaranticolor, 120 h, read-out: Curative effect (%)
Method: (§1) Owing to its non-host resistance to PVY, Chenopodium amaranticolor develops a hypersensitive response (HR) within 48–72 hours post-inoculation, producing sharply delimited chlorotic or necrotic local lesions on the inoculated leaves. The number of lesions correlates linearly and positively with virus titre, thereby serving as a quantitative indicator of viral virulence and of the inactivating efficacy of test compounds. The PVY viral extract was rubbed onto the surface of Nicotiana tabacum K326 leaves. After the characteristic symptoms of leaf wrinkling and inward curling appeared, the leaves were harvested and stored at -80°C, then purified according to previously reported methods.[50]^,[51]^,[52] Host leaves were ground to a fine powder in liquid nitrogen, followed by homogenization on ice in 0.5 M phosphate buffer. An equal volume of chloroform:n-butanol (1:1, v/v) corresponding to 10% of the total buffer volume was added, and the mixture was further homogenized on ice. After centrifugation at 10,000g for 20 minutes (4°C), the supernatant was collected as the crude PVY extract. Using 4–5-leaf-stage Chenopodium amaranticolor maintained under optimal growth conditions, a bioassay was conducted with two plants per treatment to systematically evaluate the curative, protective, and inactivating efficacy of the target compound against PVY.[53] […] Each compound was evaluated in three replicates, and the average value was calculated.
Chenopodium amaranticolor was selected as the dead spot host. Excess leaves were first trimmed off, and a uniform layer of carborundum was applied to the leaf surface. The leaves were then inoculated by rubbing with a 1200-fold diluted virus solution. After more than an hour, the carborundum on the leaf surface was washed off with running water, and a 500 μg/mL drug solution was prepared. […] The treated plants were cultivated in a greenhouse for observation, and the number of dead spots on the leaves was counted after approximately 5 days.

PVY [2] = test: Anti-PVY inactivating activity, half-leaf method; settings: Potato virus Y, in Chenopodium amaranticolor; for pest or weed control at 500 µg/mL: 120 h, read-out: Inactivating effect (%), 500 μg/mL, host Chenopodium amaranticolor, average of three replicates; for EC50: read-out: Inactivating effect EC50
Method: as §1
Two different dilutions of the virus solution (600-fold and 1200-fold) were prepared, along with a 1000 μg/mL drug solution. The drug solution was mixed with the 600-fold diluted virus solution on ice and incubated for 30 minutes. During the incubation period, the left side of the leaves was treated with a 1200-fold diluted virus solution. After the incubation was completed, the mixed system of drug and virus is inoculated on the right side of the leaf. After waiting for the infection to be completed, the carborundum on the leaf surface was washed off with running water, and the plants were then cultivated in a greenhouse. The number of dead spots on the leaves was counted after approximately 5 days.

PVY [3] = test: Anti-PVY protective activity, half-leaf method; settings: Potato virus Y, in Chenopodium amaranticolor, 120 h, read-out: Protective effect (%)
Method: as §1
In contrast to the antiviral therapeutic activity, the leaves were first treated with the drug solution. A 500 μg/mL drug solution was applied to the right side of the leaves, with the left side serving as a control and treated with a 1% Tween 80 solution. After the leaves had dried under natural conditions, they were placed in a greenhouse for 24 hours before inoculation by rubbing with carborundum, following the same procedures as those for curative activity. After treatment, the plants were maintained in a greenhouse, and the number of local lesions on the inoculated leaves was recorded approximately 5 days.

| Structure (SMILES) | pest or weed control at 500 µg/mL (PVY [1]) [%] | pest or weed control at 500 µg/mL (PVY [2]) [%] | pest or weed control at 500 µg/mL (PVY [3]) [%] | EC50 (PVY [2]) [µg/mL] |
| --- | --- | --- | --- | --- |
| COc1ccc(/C=C2\Oc3cc(OCC(=O)NS(=O)(=O)c4ccccc4)ccc3C2=O)cc1OC [D23] | 35.3 ± 1.5 | 45.4 ± 1.1 | 33.4 ± 3.9 |  |
| COc1ccc(OC)c(/C=C2\Oc3cc(OCC(=O)NS(=O)(=O)c4ccccc4)ccc3C2=O)c1 [D30] | 33.3 ± 1.4 | 49.4 ± 3.4 | 34.2 ± 3.3 |  |
| COc1cc(OC)c(/C=C2\Oc3cc(OCC(=O)NS(=O)(=O)c4ccc(Cl)cc4)ccc3C2=O)c(OC)c1 [D32] | 43.4 ± 2.3 | 53.8 ± 3 | 33.3 ± 2.6 |  |
| COc1ccccc1/C=C1\Oc2cc(OCC(=O)NS(=O)(=O)c3ccc(Br)cc3)ccc2C1=O [D15] | 37.1 ± 0.9 | 53.4 ± 4.2 | 39.3 ± 2.9 |  |
| COc1cccc(/C=C2\Oc3cc(OCC(=O)NS(=O)(=O)c4ccccc4)ccc3C2=O)c1 [D6] | 36.5 ± 2.9 | 58.8 ± 4.5 | 40.5 ± 0.8 |  |
| COc1ccccc1/C=C1\Oc2cc(OCC(=O)NS(=O)(=O)c3ccc(Cl)cc3)ccc2C1=O [D3] | 40.1 ± 3.8 | 60 to 80 | 36.9 ± 2.9 |  |
| COc1cc(/C=C2\Oc3cc(OCC(=O)NS(=O)(=O)c4ccc(F)cc4)ccc3C2=O)cc(OC)c1 [D28] | 39.9 ± 2.9 | 56.4 ± 4.7 | 32.5 ± 4.4 |  |
| COc1cccc(/C=C2\Oc3cc(OCC(=O)NS(=O)(=O)c4ccc(Cl)cc4)ccc3C2=O)c1OC [D17] | 46.2 ± 1.4 | 60 to 80 | 40.7 ± 2.3 | 142 ± 15.2 (≈ 267 µM) |
| COc1ccc(/C=C2\Oc3cc(OCC(=O)NS(=O)(=O)c4ccc(Cl)cc4)ccc3C2=O)cc1 [D1] | 38.7 ± 3.7 | 50 ± 3.5 | 44.8 ± 3.8 | 307 ± 13.7 (≈ 614 µM) |
| COc1ccc(/C=C2\Oc3cc(OCC(=O)NS(=O)(=O)c4ccc(F)cc4)ccc3C2=O)c(OC)c1 [D9] | 45.7 ± 3.3 | 58.1 ± 5.4 | 35.6 ± 2.5 |  |
| COc1cccc(/C=C2\Oc3cc(OCC(=O)NS(=O)(=O)c4ccccc4)ccc3C2=O)c1OC [D20] | 34.9 ± 4.9 | 64.7 ± 3.4 | 31.3 ± 3.8 |  |
| COc1cc(/C=C2\Oc3cc(OCC(=O)NS(=O)(=O)c4ccc(Br)cc4)ccc3C2=O)cc(OC)c1 [D21] | 33 ± 3.9 | 50.5 ± 1.6 | 22.7 ± 1.2 |  |
| COc1ccc(/C=C2\Oc3cc(OCC(=O)NS(=O)(=O)c4ccc(Br)cc4)ccc3C2=O)cc1OC [D22] | 36.2 ± 1.5 | 52 ± 3 | 28.1 ± 2.3 |  |
| COc1cccc(/C=C2\Oc3cc(OCC(=O)NS(=O)(=O)c4ccc(Br)cc4)ccc3C2=O)c1OC [D25] | 35.9 ± 3.9 | 55.4 ± 2 | 41.9 ± 2.6 |  |
| COc1ccccc1/C=C1\Oc2cc(OCC(=O)NS(=O)(=O)c3ccc(F)cc3)ccc2C1=O [D12] | 34.1 ± 3.5 | 59.4 ± 3.6 | 44.5 ± 1.5 |  |
| COc1cc(/C=C2\Oc3cc(OCC(=O)NS(=O)(=O)c4ccc(Cl)cc4)ccc3C2=O)cc(OC)c1 [D19] | 36.4 ± 5.6 | 46 ± 3 | 35.7 ± 3.8 |  |
| COc1ccc(/C=C2\Oc3cc(OCC(=O)NS(=O)(=O)c4ccccc4)ccc3C2=O)cc1 [D2] | 41.4 ± 2.9 | 60 to 80 | 36.9 ± 2.7 |  |
| COc1cccc(/C=C2\Oc3cc(OCC(=O)NS(=O)(=O)c4ccc(F)cc4)ccc3C2=O)c1 [D11] | 40.6 ± 2 | 52.9 ± 2.8 | 42.7 ± 2.8 |  |
